Assay results reported in patent US12275715B2, “Pyridin-2(1H)-one quinolinone derivatives as mutant-isocitrate dehydrogenase inhibitors” (FORMA Therapeutics, Inc., priority 2014, dated 2025).

Tests used:
[1] = test system: HCT116 isogenic IDH1-R132H mutant cells; experiment: Cellular 2-HG assay using HCT116 mutant IDH1 cells (R132H); format: cell-based; details: Homo sapiens, HCT-116; cellular 2-HG inhibition, 24 hours, RapidFire mass spectrometry; read-out: HCT116 IDH1 R132H Range
Description: (§1) HCT116 isogenic IDH1-R132H and IDH1-R132C mutant cells were cultured in growth media (McCoy's 5A, 10% fetal bovine serum, 1× antibiotic-antimycotic solution and 0.3 mg/mL G418) in 5% CO2 in an incubator at 37° C. To prepare the assay, cells were trypsinized and resuspended in assay media (McCoy's 5A with no L-glutamine, 10% fetal bovine serum, 1× antibiotic-antimycotic solution and 0.3 mg/mL G418). An aliquot of 10,000 cells/100 μL was transferred to each well of a clear 96-well tissue culture plate. The cells were incubated in 5% CO2 at 37° C. in an incubator overnight to allow for proper cell attachment. An aliquot of 50 μL of compound containing assay media were then added to each well and the assay plate was kept in 5% CO2 at 37° C. in an incubator for 24 hours. The media was then removed from each well and 150 μL of a methanol/water mixture (80/20 v/v) was added to each well. The plates were kept at −80° C. freezer overnight to allow for complete cell lysis. An aliquot of 125 μL of extracted supernatant was analyzed by RapidFire high-throughout-mass spectrometry (Agilent) to determine the cellular 2-HG level. The IC50 of a given compound was calculated by fitting the dose response curve of cellular 2-HG inhibition at a given concentration with the four parameter logistic equation

[2] = test system: HCT116 isogenic IDH1-R132C mutant cells; experiment: Cellular 2-HG assay using HCT116 mutant IDH1 cells (R132C); format: cell-based; details: Homo sapiens, HCT-116; cellular 2-HG inhibition, 24 hours, RapidFire mass spectrometry; read-out: HCT116 IDH1 R132C Range
Description: as §1

[3] = biological target: IDH1-R132H recombinant protein (Homo sapiens, UniProt O75874, R132H); experiment: IDH1-R132H enzymatic assay (NADPH consumption, diaphorase/resazurin readout); format: biochemical; details: read-out: Enzyme IDH1 R132H Range
Description: (§2) Assays were performed in a 384-well black plate. […] After the plate was centrifuged briefly, an aliquot of 10 μL of 2 mM α-ketoglutarate and 20 μM NADPH solution prepared in assay buffer was then added to each well and the reaction was maintained at 25° C. for 45 minutes. An aliquot of 10 μL of diaphorase solution (0.15 U/mL diaphorase and 30 μM Resazurin in assay buffer) was added to each well. […] The IC50 of a given compound was calculated by fitting the dose response curve of inhibition of NADPH consumption at a given concentration with the four parameter logistic equation.

[4] = biological target: IDH1-R132C recombinant protein (Homo sapiens, UniProt O75874, R132C); experiment: IDH1-R132C enzymatic assay (NADPH consumption, diaphorase/resazurin readout); format: biochemical; details: read-out: Enzyme IDH1 R132C Range
Description: as §2

Sequence of IDH1-R132H recombinant protein (O75874 whole entry R132H): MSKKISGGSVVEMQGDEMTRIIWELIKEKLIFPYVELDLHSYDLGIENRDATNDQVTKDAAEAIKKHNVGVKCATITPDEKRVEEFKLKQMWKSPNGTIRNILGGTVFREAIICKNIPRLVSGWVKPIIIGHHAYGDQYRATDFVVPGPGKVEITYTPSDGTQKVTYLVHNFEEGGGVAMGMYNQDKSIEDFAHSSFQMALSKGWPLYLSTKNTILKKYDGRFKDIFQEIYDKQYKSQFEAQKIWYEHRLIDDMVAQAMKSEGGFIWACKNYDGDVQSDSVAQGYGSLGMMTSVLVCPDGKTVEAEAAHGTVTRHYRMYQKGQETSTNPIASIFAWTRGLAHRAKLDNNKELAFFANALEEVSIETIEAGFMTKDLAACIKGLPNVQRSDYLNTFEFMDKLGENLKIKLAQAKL
Sequence of IDH1-R132C recombinant protein (O75874 whole entry R132C): as the sequence (O75874 whole entry R132H) above, with H132C counted along it

SMILES | IC50 [1] [nM] | IC50 [2] [nM] | IC50 [3] [nM] | IC50 [4] [nM]
CC(C)Oc1cc2[nH]c(=O)c([C@H](C)Nc3ccc(C#N)n(C)c3=O)cc2cc1Cl [Compound I-29, 5-{[(1S)-1-[6-chloro-2-oxo-7-(propan-2-yloxy)-1,2-dihydroquinolin-3-yl]ethyl]amino}-1-methyl-6-oxo-1,6-dihydropyridine-2-carbonitrile] | 10 to 100 | 10 to 100 |  | 
C[C@H](Nc1ccc(C#N)n(C)c1=O)c1cc2cc(Cl)c(O[C@H](C)c3ccccn3)cc2[nH]c1=O [Compound I-26, 5-(((S)-1-(6-chloro-2-oxo-7-((R)-1-(pyridin-2-yl)ethoxy)-1,2-dihydroquinolin-3-yl)ethyl)amino)-1-methyl-6-oxo-1,6-dihydropyridine-2-carbonitrile] | < 10 | < 10 |  | 
COC(=O)c1c[nH]c(=O)c(NCc2cc3cc(Cl)ccc3[nH]c2=O)c1 [Compound I-10, methyl 5-{[(6-chloro-2-oxo-1,2-dihydroquinolin-3-yl)methyl]amino}-6-oxo-1,6-dihydropyridine-3-carboxylate] |  |  | > 1000 | 
N#Cc1ccc(NCc2cc3cc(Cl)ccc3[nH]c2=O)c(=O)[nH]1 [Compound I-4, 5-{[(6-chloro-2-oxo-1,2-dihydroquinolin-3-yl)methyl]amino}-6-oxo-1,6-dihydropyridine-2-carbonitrile] |  |  | 10 to 100 | 100 to 1000
O=c1[nH]c2ccc(Cl)cc2cc1CNc1ccc(C(F)(F)F)[nH]c1=O [Compound I-8, 6-chloro-3-({[2-oxo-6-(trifluoromethyl)-1,2-dihydropyridin-3-yl]amino}methyl)-1,2-dihydroquinolin-2-one] |  |  | > 1000 | 
Cn1c(C(F)(F)F)ccc(NCc2cc3cc(Cl)ccc3[nH]c2=O)c1=O [Compound I-9, 6-chloro-3-({[1-methyl-2-oxo-6-(trifluoromethyl)-1,2-dihydropyridin-3-yl]amino}methyl)-1,2-dihydroquinolin-2-one] |  |  | 100 to 1000 | > 10000
CC(Nc1ccc(C#N)n(C)c1=O)c1cc2cc(Cl)c(F)cc2[nH]c1=O (centres unmarked) [Compound I-19, 5-{[1-(6-chloro-7-fluoro-2-oxo-1,2-dihydroquinolin-3-yl)ethyl]amino}-1-methyl-6-oxo-1,6-dihydropyridine-2-carbonitrile] | 10 to 100 | 10 to 100 | 10 to 100 | 100 to 1000
CC(Nc1ccc(C#N)n(C)c1=O)c1cc2cc(Cl)c(OCC3CC(F)(F)C3)cc2[nH]c1=O (centres unmarked) [Compound I-28, 5-[(1-{6-chloro-7-[(3,3-difluorocyclobutyl)methoxy]-2-oxo-1,2-dihydroquinolin-3-yl}ethyl)amino]-1-methyl-6-oxo-1,6-dihydropyridine-2-carbonitrile] | 10 to 100 | 10 to 100 | 10 to 100 | 
C[C@H](Nc1ccc(C#N)n(C)c1=O)c1cc2cc(Cl)cc(F)c2[nH]c1=O [Compound I-30, 5-{[(1S)-1-(6-chloro-8-fluoro-2-oxo-1,2-dihydroquinolin-3-yl)ethyl]amino}-1-methyl-6-oxo-1,6-dihydropyridine-2-carbonitrile] | 10 to 100 | 100 to 1000 | 10 to 100 | 100 to 1000
COc1cc2[nH]c(=O)c(C(C)Nc3ccc(C#N)n(C)c3=O)cc2cc1Cl (centres unmarked) [Compound I-22, 5-{[1-(6-chloro-7-methoxy-2-oxo-1,2-dihydroquinolin-3-yl)ethyl]amino}-1-methyl-6-oxo-1,6-dihydropyridine-2-carbonitrile] | < 10 | 10 to 100 |  | 
Cn1cccc(NCc2cc3cc(Cl)c(OCc4ccccn4)cc3[nH]c2=O)c1=O [Compound I-12, 6-chloro-3-{[(1-methyl-2-oxo-1,2-dihydropyridin-3-yl)amino]methyl}-7-(pyridin-2-ylmethoxy)-1,2-dihydroquinolin-2-one] |  |  | 10 to 100 | > 10000
O=c1[nH]c2ccc(Cl)cc2cc1CNc1ccc(Br)[nH]c1=O [Compound I-7, 3-{[(6-bromo-2-oxo-1,2-dihydropyridin-3-yl)amino]methyl}-6-chloro-1,2-dihydroquinolin-2-one] |  |  | > 1000 | 
COc1cc2[nH]c(=O)c([C@H](C)Nc3ccc(C#N)n(C)c3=O)cc2cc1Cl [Compound I-20, 5-{[(1S)-1-(6-chloro-7-methoxy-2-oxo-1,2-dihydroquinolin-3-yl)ethyl]amino}-1-methyl-6-oxo-1,6-dihydropyridine-2-carbonitrile] | < 10 | 10 to 100 |  | 
C[C@@H](Nc1ccc(C#N)n(C)c1=O)c1cc2cc(Cl)c(F)cc2[nH]c1=O [Compound I-18, 5-{[(1R)-1-(6-chloro-7-fluoro-2-oxo-1,2-dihydroquinolin-3-yl)ethyl]amino}-1-methyl-6-oxo-1,6-dihydropyridine-2-carbonitrile] |  |  | > 1000 | > 10000
C[C@H](Nc1ccc(C#N)n(C)c1=O)c1cc2cc(Cl)cnc2[nH]c1=O [Compound I-31, 5-{[(1S)-1-(6-chloro-2-oxo-1,2-dihydro-1,8-naphthyridin-3-yl)ethyl]amino}-1-methyl-6-oxo-1,6-dihydropyridine-2-carbonitrile] | 10 to 100 | > 1000 | 100 to 1000 | 1000 to 10000
C[C@H](Nc1ccc(C#N)n(C)c1=O)c1cc2cc(Cl)c(OCc3ccccn3)cc2[nH]c1=O [Compound I-23, 5-{[(1S)-1-[6-chloro-2-oxo-7-(pyridin-2-ylmethoxy)-1,2-dihydroquinolin-3-yl]ethyl]amino}-1-methyl-6-oxo-1,6-dihydropyridine-2-carbonitrile] | < 10 | < 10 |  | 
C[C@H](Nc1ccc(C#N)n(C)c1=O)c1cc2cc(Cl)c(F)cc2[nH]c1=O [Compound I-16, 5-{[(1S)-1-(6-chloro-7-fluoro-2-oxo-1,2-dihydroquinolin-3-yl)ethyl]amino}-1-methyl-6-oxo-1,6-dihydropyridine-2-carbonitrile] | 10 to 100 | 100 to 1000 | 10 to 100 | 100 to 1000
C[C@H](Nc1ccc(C#N)n(C)c1=O)c1cc2cc(Cl)ccc2[nH]c1=O [Compound I-13, (S)-5-((1-(6-chloro-2-oxo-1,2-dihydroquinolin-3-yl)ethyl)amino)-1-methyl-6-oxo-1,6-dihydropyridine-2-carbonitrile] | 10 to 100 | 10 to 100 |  | 
CC(Nc1ccc(C#N)n(C)c1=O)c1cc2cc(Cl)c(OCc3ccccn3)cc2[nH]c1=O (centres unmarked) [Compound I-25, 5-({1-[6-chloro-2-oxo-7-(pyridin-2-ylmethoxy)-1,2-dihydroquinolin-3-yl]ethyl}amino)-1-methyl-6-oxo-1,6-dihydropyridine-2-carbonitrile] | < 10 | < 10 |  | 
C[C@H](Nc1ccc(C#N)[nH]c1=O)c1cc2cc(Cl)ccc2[nH]c1=O [Compound I-14, 5-{[(1S)-1-(6-chloro-2-oxo-1,2-dihydroquinolin-3-yl)ethyl]amino}-6-oxo-1,6-dihydropyridine-2-carbonitrile] | 10 to 100 | 100 to 1000 | 10 to 100 | 100 to 1000
C[C@H](Nc1ccc(C#N)n(C)c1=O)c1cc2cc(Cl)c(OCC3CC3)cc2[nH]c1=O [Compound I-27, 5-{[(1S)-1-[6-chloro-7-(cyclopropylmethoxy)-2-oxo-1,2-dihydroquinolin-3-yl]ethyl]amino}-1-methyl-6-oxo-1,6-dihydropyridine-2-carbonitrile] | < 10 | 10 to 100 |  | 
C[C@H](Nc1ccc(C#N)n(C)c1=O)c1nc2cc(Cl)ccc2[nH]c1=O [Compound I-33, 5-{[(1S)-1-(7-chloro-3-oxo-3,4-dihydroquinoxalin-2-yl)ethyl]amino}-1-methyl-6-oxo-1,6-dihydropyridine-2-carbonitrile] | 100 to 1000 | > 1000 | 100 to 1000 | 1000 to 10000
C[C@@H](Nc1ccc(C#N)n(C)c1=O)c1nc2cc(Cl)ccc2[nH]c1=O [Compound I-32, 5-{[(1R)-1-(7-chloro-3-oxo-3,4-dihydroquinoxalin-2-yl)ethyl]amino}-1-methyl-6-oxo-1,6-dihydropyridine-2-carbonitrile] | > 1000 | > 1000 | 100 to 1000 | 1000 to 10000
C[C@H](Nc1ncc(C#N)n(C)c1=O)c1cc2cc(Cl)ccc2[nH]c1=O [Compound I-17, 5-{[(1S)-1-(6-chloro-2-oxo-1,2-dihydroquinolin-3-yl)ethyl]amino}-1-methyl-6-oxo-1,6-dihydropyrazine-2-carbonitrile] | 10 to 100 | 100 to 1000 | 10 to 100 | 100 to 1000
